The test system of this experiment is IL-1 secretion. The experiment can be described thus: IL-1 secretion assay (ELISA), LPS stimulated white blood cells. It counts as cell-based. As to conditions: Homo sapiens, PBMC. Here is the method:
The compound dilution matrix was assayed for the suppression of phorbol 12-myristate 13 acetate/ionomycin stimulated IL-1 and TNFα secretion as well as the suppression of lipopolysaccharide-stimulated TNFα secretion from human white blood cells using the ELISA method, as described below.
A stock solution containing prednisolone (0.36 mg/ml) was prepared in DMSO. A stock solution containing ibudilast (1.84 mg/ml) was prepared in DMSO. Master plates were prepared for dilutions of the stock solutions above.
The final single agent plates were generated by transferring 1 μL of stock solution from the specific master plate to separate dilution plates containing 99 μL of media (RPMI; Gibco BRL, #11875-085), 10% fetal bovine serum (Gibco BRL, #25140-097), 2% penicillin/streptomycin (Gibco BRL, #15140-122)) using the Packard Mini-Trak liquid handler. The dilution plates were then mixed and a 10 μL aliquot transferred from each dilution plate to the final assay plate (polystyrene 384-well plate (NalgeNunc)), which had been pre-filled with 30 μL/well RPMI media containing 33 ng/mL phorbol 12-myristate 13-acetate (Sigma, P-1585) and 2.475 ng/mL ionomycin (Sigma, I-0634) or alternatively for the LPS stimulated assay RPMI media containing 2 μg/ml lipopolysaccharide (Sigma, L-4130).
The effects of test compound combinations on IL-1 secretion were assayed in white blood cells from human buffy coat stimulated with LPS, as follows. Human white blood cells from buffy coat were diluted 1:50 in media (RPMI; Gibco BRL, #11875-085), 10% fetal bovine serum (Gibco BRL, #25140-097), 2% penicillin/streptomycin (Gibco BRL, #15140-122)) and 50 μL of the diluted white blood cells was placed in each well of the final assay plate created in the above section. After 16-18 hours of incubation at 37° C. in a humidified incubator, the plate was centrifuged and the supernatant was transferred to a white opaque 384-well plate (NalgeNunc, MAXISORB) coated with an anti-IL-1 antibody (R&D Systems, MAB601). After a two-hour incubation, the plate was washed (Tecan Powerwasher 384) with PBS containing 0.1% Tween 20 and incubated for an additional one hour with a biotin labeled anti-IL-1 antibody (R&D Systems, BAF201) and horse radish peroxidase coupled to streptavidin (PharMingen, #554066). The plate was then washed again with 0.1% Tween 20/PBS, and an HRP-luminescent substrate was added to each well. Light intensity was then measured using a plate luminometer.
The percent inhibition (% I) for each well was calculated using the following formula: % I=[(avg. untreated wells−treated well)/(avg. untreated wells)]×100
The average untreated well value (avg. untreated wells) is the arithmetic mean of 30 wells from the same assay plate treated with vehicle alone.
IL-1 secretion was measured by ELISA as described above after stimulation with lipopolysaccharide. The effects of varying concentrations of ibudilast, prednisolone and a combination of ibudilast and prednisolone were compared to control wells.

As a reminder, the inhibition is the change of the read-out against control, counted positive when it falls. Turning to `CC(C)C(=O)c1c(C(C)C)nn2ccccc12` [Ibudilast, ibudilast], for the setting “ibudilast 0.062 μM alone”, the inhibition at 0.062 µM is 19%. In addition, the inhibition at 0.12 µM (ibudilast 0.12 μM alone) is -1.6%. The inhibition at 0.25 µM (ibudilast 0.25 μM alone) was 20%. Further, for the setting “ibudilast 0.5 μM alone”, the inhibition at 0.5 µM came to 18%. Moreover, where the note is “ibudilast 1 μM alone”, the inhibition at 1 µM turned out to be 41%. Moreover, the inhibition at 2 µM (ibudilast 2 μM alone) was determined as 42%. For the setting “ibudilast 4 μM alone”, the inhibition at 4 µM was 50%. The inhibition at 8 µM (ibudilast 8 μM alone) was 61%.
On to `C[C@]12C=CC(=O)C=C1CC[C@@H]1[C@@H]2[C@@H](O)C[C@@]2(C)[C@H]1CC[C@]2(O)C(=O)CO` [Prednisolone, prednisolone], for which the inhibition at 0.0078 µM (prednisolone 0.0078 μM alone) is 18%. Also, the inhibition at 0.016 µM (prednisolone 0.016 μM alone) is 25%. The inhibition at 0.031 µM (prednisolone 0.031 μM alone) came to 50%. Further, under “prednisolone 0.062 μM alone”, the inhibition at 0.062 µM was found to be 69%. The inhibition at 0.12 µM (prednisolone 0.12 μM alone) was determined as 70%. The inhibition at 0.25 µM (prednisolone 0.25 μM alone) came out at 74%. For the same compound, the inhibition at 0.5 µM (prednisolone 0.5 μM alone) amounted to 77%. Further, the inhibition at 1 µM (prednisolone 1 μM alone) is 84%.

The values above are taken from patent US7709495B2, “Methods and reagents for the treatment of inflammatory disorders” (CombinatoRx, Incorporated, priority 2003, dated 2010).
